Measurements published in patent US6251897A, “6-phenyltetrahydro-1,3-oxazin-2-one derivative and pharmaceutical composition containing the same” (Nikken Chemicals Co., LTD, priority 1996, dated 2001).

Assays:
Type IV PDE = test: PDE inhibitory activity, type IV isozyme (3H-cAMP hydrolysis); format: biochemical; conditions: partially purified from rat neutrophils, 30° C., 30 minutes
Procedure: Type I, III, IV, and V PDE isozymes were prepared to study the PDE inhibitory activities and selectivities with the compound of the invention [Trends Pharmacol. Sci., 12, 19-27 (1992)]. Type I PDE was purchased from Sigma Corp. Type III, IV, and V PDE isozymes were partially purified from rats platelets (Type III and V) or neutrophils (Type IV). Each enzyme source was homogenized in a buffer (pH 6.5) containing 20 mM bisTris, 2 mM EDTA (ethylenediamine tetraacetate), 0.1 mM PMSF (phenylmethylsulfonyl fluoride), 5 mM 2-mercaptoethanol, 0.001 mM pepstatin, and 0.01 mM leupeptin and was centrifuged at 30,000×G for 30 minutes to obtain a supernatant, which was applied to an ion exchange column (Q-sepharose First Flow, Pharmacia Corp.) and was eluted with 0 to 1M sodium acetate. Partially purified isozymes were identified by observing the effects of conventional inhibitors.
Each PDE isozyme and the test compound dissolved in DMSO (dimethyl sulfoxide) were added to 50 mM Tris-HCl buffer containing 5 mM magnesium chloride. ^3 H-cAMP (for type III and IV PDE) or ^3 H-cGMP (for type I and V PDE) were added as substrates and were reacted at 30° C. for 30 minutes. The reaction was terminated by placing the test tube in boiling water of 100° C. for 5 minutes. The nucleotides formed by PDE were broken down by 5'-nucleotidase to ^3 H-adenosine or ^3 H-guanosine. The unreacted substrate and reaction product were separated through an ion-exchange column (QAE sephadex, Pharmacia Corp.) The eluted ^3 H-nucleoside was measured for its radioactivity by a liquid scintillation counter. The inhibiting activities of the compound of the present invention are shown by the IC50 value (M). Further, the inhibitory activities of the test samples against Type I, III, and V are 1/10 or less than that against type IV.

[1] = tested on: antigen-induced bronchospasm in guinea pig; test: Inhibitory effect on antigen-induced bronchospasm (Konzett-Roessler, ovalbumin-sensitized); format: in vivo, guinea pig (Hartley male); conditions: Cavia porcellus; intravenous, 10 minutes before antigen (0.2 mg/kg OA i.v.); read-out: Action for suppressing antigen-induced bronchospasms ED50
Procedure: A Hartley male guinea pig was sensitized by intramuscular administration of […] Ovalbumin (OA) on first day and fourth day, and used after 24th day. A trachial canula was introduced in the guinea pig anesthetized with pentobarbital and artificial ventilation was performed 25 to 29 days after the first sensitization. The overflow of the ventilation was measured by the Konzett-Roessler method while 0.2 mg/kg OA were administered intravenously. The test compound was dissolved in polyethylene glycol 400 and intravenously administered 10 minutes before administration of the antigens.

| SMILES | IC50 (Type IV PDE) [nM] | ED50 [1] [mg/kg] |
| --- | --- | --- |
| CCC1(c2ccc(OC)c(OC3CCCC3)c2)CCNC(=O)O1 (stereo not drawn) [Compound No. 26, 6-(3-cyclopentyloxy-4-methoxyphenyl)-6-ethyl-3,4,5,6-tetrahydro-2H-1,3-oxazin-2-one] | 3500 | 2.4 |
| CCN1CCC(c2ccc(OC)c(OC3CCCC3)c2)OC1=O (stereo not drawn) [Compound No. 28, 6-(3-cyclopentyloxy-4-methoxyphenyl)-3-ethyl-3,4,5,6-tetrahydro-2H-1,3-oxazin-2-one] | 1700 | 7.4 |
| COc1ccc(C2CCN(C)C(=O)O2)cc1OCC1CC1 (stereo not drawn) [Compound No. 49, 6-(3-cyclopropylmethyloxy-4-methoxyphenyl)-3-methyl-3,4 5,6-tetrahydro-2H-1,3-oxazin-2-one] | 2000 | 3.1 |
| COc1ccc(C2(C)CCN(C)C(=O)O2)cc1OCC1CC1 (stereo not drawn) [Compound No. 51, 6-(3-cyclopropylmethyloxy-4-methoxyphenyl)-3,6-dimethyl-3,4,5,6-tetrahydro-2H-1,3-oxazin-2-one] | 1900 | 2.23 |
| COc1ccc(C2CCN(C)C(=O)O2)cc1OCC1(c2ccccc2)CC1 (stereo not drawn) [Compound No. 57, 6-[4-methoxy-3-[(1-phenylcyclopropyl)methyloxy]phenyl]-3-methyl-3,4,5,6-tetrahydro-2H-1,3-oxazin-2-one] | 1300 | 15.9 |
| COc1ccc(C2CCNC(=O)O2)cc1OCC1CCC1 (stereo not drawn) [Compound No. 61, 6-(3-cyclobutylmethyloxy-4-methoxyphenyl)-3,4,5,6-tetrahydro-2H-1,3-oxazin-2-one] | 3200 | 1.84 |
| COc1ccc(C2CCNC(=O)O2)cc1OCC(C)C (stereo not drawn) [Compound No. 65, 6-[4-methoxy-3-(2-methylpropoxy)phenyl]-3,4,5,6-tetrahydro-2H-1,3-oxazin-2-one] | 2200 | 0.22 |
| COc1ccc(C2CCN(C)C(=O)O2)cc1OCC(C)C (stereo not drawn) [Compound No. 66, 6-[4-methoxy-3-(2-methylpropoxy)phenyl]-3-methyl-3,4,5,6-tetrahydro-2H-1,3-oxazin-2-one] | 3800 | 0.051 |
| COc1ccc(C2CCNC(=O)O2)cc1OCC1CCCC1 (stereo not drawn) [Compound No. 76, 6-(3-cyclopentylmethyloxy-4-methoxyphenyl)-3,4,5,6-tetrahydro-2H-1,3-oxazin-2-one] | 2900 | 0.27 |

Now those with a lower IC50 (Type IV PDE), led by results:

| IC50 (Type IV PDE) [nM] | SMILES | ED50 [1] [mg/kg] |
| --- | --- | --- |
| 1100 | COc1ccc(C2(C)CCNC(=O)O2)cc1OCC1CC1 (stereo not drawn) [Compound No. 50, 6-(3-cyclopropylmethyloxy-4-methoxyphenyl)-6-methyl-3,4,5,6-tetrahydro-2H-1,3-oxazin-2-one] | 0.3 |
| 940 | COc1ccc(C2CCNC(=O)O2)cc1OCC1(c2ccccc2)CC1 (stereo not drawn) [Compound No. 56, 6-[4-methoxy-3-[(1-phenylcyclopropyl)methyloxy]phenyl]-3,4,5,6-tetrahydro-2H-1,3-oxazin-2-one] | 1.72 |
| 490 | COc1ccc(C2(C)CCNC(=O)O2)cc1OCCc1ccccc1 (stereo not drawn) [Compound No. 46, 6-(4-methoxy-3-phenethyloxyphenyl)-6-methyl-3,4,5,6-tetrahydro-2H-1,3-oxazin-2-one] | 11.4 |
| 310 | CCN1CCC(c2ccc(OC)c(OC3Cc4ccccc4C3)c2)OC1=O (stereo not drawn) [Compound No. 71, 3-ethyl-6-[3-(2-indanyloxy)-4-methoxyphenyl]-3,4,5,6-tetrahydro-2H-1,3-oxazin-2-one] | 2.67 |
| 66 | COc1ccc(C2(C)CCN(C)C(=O)O2)cc1OC1Cc2ccccc2C1 (stereo not drawn) [Compound No. 43, 3,6-dimethyl-6-[3-(2-indanyloxy)-4-methoxyphenyl]-3,4,5,6-tetrahydro-2H-1,3-oxazin-2-one] | 0.29 |
| 50 | COc1ccc(C2(C)CCNC(=O)O2)cc1OC1Cc2ccccc2C1 (stereo not drawn) [Compound No. 40, 6-[3-(2-indanyloxy)-4-methoxyphenyl]-6-methyl-3,4,5,6-tetrahydro-2H-1,3-oxazin-2-one] | 0.47 |
